Measured values reported in patent US8735601B2, “Pentamethine cyanine fluorescent dye with N-substituting at β-position of conjugated chain” (Dalian University of Technology, priority 2010, dated 2014).

assay: Absorption and emission spectra of dyes in different solvents; assay type: physicochemical; parameters: key to Δλ1 / Δλ2: Stokes shift in nm; ε1 (molar extinction coefficient) / ε2 (molar extinction coefficient): scale not given here; details: Stokes shift to absorption peak 1; solvent DCM
From the text: In the present invention, compounds IIa to IIg were synthesized based on compound II, and their spectral properties were investigated. Compared with the traditional pentamethine cyanine dye, for the novel pentamethine cyanine dye with N-substituting at β-position (deviated position), it was observed that, evident blue shift of absorption and emission wavelengths occurred, absorption wavelength blue shifted even largely than that of emission wavelength, absorption spectrum and fluorescence spectrum were no longer mirror-symmetric and had two absorption peaks and a single emission peak, and larger Stokes shift (minimum 60 and 150 nm, and maximum 90 and 230 nm) appeared.

| Structure (SMILES) | Δλ1 |
| --- | --- |
| CCN1/C(=C/C=C/C(=C/C2=[N+](CC)c3ccccc3C2(C)C)Nc2ccccc2)C(C)(C)c2ccccc21 [Dye IIg] | 75 |
| CCN(CC)C(=C\C1=[N+](CC)c2ccccc2C1(C)C)/C=C/C=C1/N(CC)c2ccccc2C1(C)C [Dye IId] | 88 |

same assay, conditions: Stokes shift to absorption peak 1; solvent DMSO

| Structure (SMILES) | Δλ1 |
| --- | --- |
| CCN1/C(=C/C=C/C(=C/C2=[N+](CC)c3ccccc3C2(C)C)Nc2ccccc2)C(C)(C)c2ccccc21 [Dye IIg] | 80 |
| CCN(CC)C(=C\C1=[N+](CC)c2ccccc2C1(C)C)/C=C/C=C1/N(CC)c2ccccc2C1(C)C [Dye IId] | 92 |

same assay, conditions: Stokes shift to absorption peak 1; solvent Ethanol

| Structure (SMILES) | Δλ1 |
| --- | --- |
| CCN1/C(=C/C=C/C(=C/C2=[N+](CC)c3ccccc3C2(C)C)Nc2ccccc2)C(C)(C)c2ccccc21 [Dye IIg] | 77 |
| CCN(CC)C(=C\C1=[N+](CC)c2ccccc2C1(C)C)/C=C/C=C1/N(CC)c2ccccc2C1(C)C [Dye IId] | 94 |

same assay, conditions: Stokes shift to absorption peak 1; solvent Methanol

| Structure (SMILES) | Δλ1 |
| --- | --- |
| CCN1/C(=C/C=C/C(=C/C2=[N+](CC)c3ccccc3C2(C)C)Nc2ccccc2)C(C)(C)c2ccccc21 [Dye IIg] | 77 |
| CCN(CC)C(=C\C1=[N+](CC)c2ccccc2C1(C)C)/C=C/C=C1/N(CC)c2ccccc2C1(C)C [Dye IId] | 96 |

same assay, conditions: Stokes shift to absorption peak 1; solvent THF

| Structure (SMILES) | Δλ1 |
| --- | --- |
| CCN1/C(=C/C=C/C(=C/C2=[N+](CC)c3ccccc3C2(C)C)Nc2ccccc2)C(C)(C)c2ccccc21 [Dye IIg] | 83 |
| CCN(CC)C(=C\C1=[N+](CC)c2ccccc2C1(C)C)/C=C/C=C1/N(CC)c2ccccc2C1(C)C [Dye IId] | 87 |

same assay, conditions: Stokes shift to absorption peak 1; solvent Water

| Structure (SMILES) | Δλ1 |
| --- | --- |
| CCN1/C(=C/C=C/C(=C/C2=[N+](CC)c3ccccc3C2(C)C)Nc2ccccc2)C(C)(C)c2ccccc21 [Dye IIg] | 81 |
| CCN(CC)C(=C\C1=[N+](CC)c2ccccc2C1(C)C)/C=C/C=C1/N(CC)c2ccccc2C1(C)C [Dye IId] | 99 |

same assay, conditions: Stokes shift to absorption peak 2; solvent DCM

| Structure (SMILES) | Δλ2 |
| --- | --- |
| CCN1/C(=C/C=C/C(=C/C2=[N+](CC)c3ccccc3C2(C)C)Nc2ccccc2)C(C)(C)c2ccccc21 [Dye IIg] | 180 |
| CCN(CC)C(=C\C1=[N+](CC)c2ccccc2C1(C)C)/C=C/C=C1/N(CC)c2ccccc2C1(C)C [Dye IId] | 158 |

same assay, conditions: Stokes shift to absorption peak 2; solvent DMSO

| Structure (SMILES) | Δλ2 |
| --- | --- |
| CCN1/C(=C/C=C/C(=C/C2=[N+](CC)c3ccccc3C2(C)C)Nc2ccccc2)C(C)(C)c2ccccc21 [Dye IIg] | 230 |
| CCN(CC)C(=C\C1=[N+](CC)c2ccccc2C1(C)C)/C=C/C=C1/N(CC)c2ccccc2C1(C)C [Dye IId] | 140 |

same assay, conditions: Stokes shift to absorption peak 2; solvent Ethanol

| Structure (SMILES) | Δλ2 |
| --- | --- |
| CCN1/C(=C/C=C/C(=C/C2=[N+](CC)c3ccccc3C2(C)C)Nc2ccccc2)C(C)(C)c2ccccc21 [Dye IIg] | 206 |
| CCN(CC)C(=C\C1=[N+](CC)c2ccccc2C1(C)C)/C=C/C=C1/N(CC)c2ccccc2C1(C)C [Dye IId] | 157 |

same assay, conditions: Stokes shift to absorption peak 2; solvent Methanol

| Structure (SMILES) | Δλ2 |
| --- | --- |
| CCN1/C(=C/C=C/C(=C/C2=[N+](CC)c3ccccc3C2(C)C)Nc2ccccc2)C(C)(C)c2ccccc21 [Dye IIg] | 208 |
| CCN(CC)C(=C\C1=[N+](CC)c2ccccc2C1(C)C)/C=C/C=C1/N(CC)c2ccccc2C1(C)C [Dye IId] | 158 |

same assay, conditions: Stokes shift to absorption peak 2; solvent THF

| Structure (SMILES) | Δλ2 |
| --- | --- |
| CCN1/C(=C/C=C/C(=C/C2=[N+](CC)c3ccccc3C2(C)C)Nc2ccccc2)C(C)(C)c2ccccc21 [Dye IIg] | 236 |
| CCN(CC)C(=C\C1=[N+](CC)c2ccccc2C1(C)C)/C=C/C=C1/N(CC)c2ccccc2C1(C)C [Dye IId] | 154 |

same assay, conditions: Stokes shift to absorption peak 2; solvent Water

| Structure (SMILES) | Δλ2 |
| --- | --- |
| CCN1/C(=C/C=C/C(=C/C2=[N+](CC)c3ccccc3C2(C)C)Nc2ccccc2)C(C)(C)c2ccccc21 [Dye IIg] | 200 |
| CCN(CC)C(=C\C1=[N+](CC)c2ccccc2C1(C)C)/C=C/C=C1/N(CC)c2ccccc2C1(C)C [Dye IId] | 152 |

same assay, conditions: solvent DCM

| Structure (SMILES) | ε1 (molar extinction coefficient) | ε2 (molar extinction coefficient) | λabs1 | λbs2 | λem |
| --- | --- | --- | --- | --- | --- |
| CCN1/C(=C/C=C/C(=C/C2=[N+](CC)c3ccccc3C2(C)C)Nc2ccccc2)C(C)(C)c2ccccc21 [Dye IIg] | 3.6 cm^−1M | 2.1 cm^−1M | 570 nm | 465 nm | 645 nm |
| CCN(CC)C(=C\C1=[N+](CC)c2ccccc2C1(C)C)/C=C/C=C1/N(CC)c2ccccc2C1(C)C [Dye IId] | 4.3 cm^−1M | 2.9 cm^−1M | 523 nm | 453 nm | 611 nm |

same assay, conditions: solvent DMSO

| Structure (SMILES) | ε1 (molar extinction coefficient) | ε2 (molar extinction coefficient) | λabs1 | λbs2 | λem |
| --- | --- | --- | --- | --- | --- |
| CCN1/C(=C/C=C/C(=C/C2=[N+](CC)c3ccccc3C2(C)C)Nc2ccccc2)C(C)(C)c2ccccc21 [Dye IIg] | 1.9 cm^−1M | 2.1 cm^−1M | 566 nm | 416 nm | 646 nm |
| CCN(CC)C(=C\C1=[N+](CC)c2ccccc2C1(C)C)/C=C/C=C1/N(CC)c2ccccc2C1(C)C [Dye IId] | 3.9 cm^−1M | 2.7 cm^−1M | 508 nm | 460 nm | 600 nm |

same assay, conditions: solvent Ethanol

| Structure (SMILES) | ε1 (molar extinction coefficient) | ε2 (molar extinction coefficient) | λabs1 | λbs2 | λem |
| --- | --- | --- | --- | --- | --- |
| CCN1/C(=C/C=C/C(=C/C2=[N+](CC)c3ccccc3C2(C)C)Nc2ccccc2)C(C)(C)c2ccccc21 [Dye IIg] | 2.5 cm^−1M | 2.0 cm^−1M | 563 nm | 434 nm | 640 nm |
| CCN(CC)C(=C\C1=[N+](CC)c2ccccc2C1(C)C)/C=C/C=C1/N(CC)c2ccccc2C1(C)C [Dye IId] | 3.5 cm^−1M | 2.5 cm^−1M | 516 nm | 453 nm | 610 nm |

same assay, conditions: solvent Methanol

| Structure (SMILES) | ε1 (molar extinction coefficient) | ε2 (molar extinction coefficient) | λabs1 | λbs2 | λem |
| --- | --- | --- | --- | --- | --- |
| CCN1/C(=C/C=C/C(=C/C2=[N+](CC)c3ccccc3C2(C)C)Nc2ccccc2)C(C)(C)c2ccccc21 [Dye IIg] | 2.3 cm^−1M | 2.2 cm^−1M | 561 nm | 430 nm | 638 nm |
| CCN(CC)C(=C\C1=[N+](CC)c2ccccc2C1(C)C)/C=C/C=C1/N(CC)c2ccccc2C1(C)C [Dye IId] | 3.9 cm^−1M | 2.8 cm^−1M | 513 nm | 451 nm | 609 nm |

same assay, conditions: solvent THF

| Structure (SMILES) | ε1 (molar extinction coefficient) | ε2 (molar extinction coefficient) | λabs1 | λbs2 | λem |
| --- | --- | --- | --- | --- | --- |
| CCN1/C(=C/C=C/C(=C/C2=[N+](CC)c3ccccc3C2(C)C)Nc2ccccc2)C(C)(C)c2ccccc21 [Dye IIg] | 0.9 cm^−1M | 2.8 cm^−1M | 556 nm | 403 nm | 639 nm |
| CCN(CC)C(=C\C1=[N+](CC)c2ccccc2C1(C)C)/C=C/C=C1/N(CC)c2ccccc2C1(C)C [Dye IId] | 4.1 cm^−1M | 2.1 cm^−1M | 517 nm | 450 nm | 604 nm |

same assay, conditions: solvent Water

| Structure (SMILES) | ε1 (molar extinction coefficient) | ε2 (molar extinction coefficient) | λabs1 | λbs2 | λem |
| --- | --- | --- | --- | --- | --- |
| CCN1/C(=C/C=C/C(=C/C2=[N+](CC)c3ccccc3C2(C)C)Nc2ccccc2)C(C)(C)c2ccccc21 [Dye IIg] | 1.7 cm^−1M | 2.2 cm^−1M | 559 nm | 440 nm | 640 nm |
| CCN(CC)C(=C\C1=[N+](CC)c2ccccc2C1(C)C)/C=C/C=C1/N(CC)c2ccccc2C1(C)C [Dye IId] | 2.9 cm^−1M | 2.3 cm^−1M | 501 nm | 448 nm | 600 nm |

assay: Measurement of fluorescence quantum yield (Rhodamine B in ethanol as reference); assay type: physicochemical; details: solvent DCM

| Structure (SMILES) | Φ1 (fluorescence quantum yield) | Φ2 (fluorescence quantum yield) |
| --- | --- | --- |
| CCN1/C(=C/C=C/C(=C/C2=[N+](CC)c3ccccc3C2(C)C)Nc2ccccc2)C(C)(C)c2ccccc21 [Dye IIg] | 0.064 | 0.055 |
| CCN(CC)C(=C\C1=[N+](CC)c2ccccc2C1(C)C)/C=C/C=C1/N(CC)c2ccccc2C1(C)C [Dye IId] | 0.124 | 0.085 |

same assay, conditions: solvent DMSO

| Structure (SMILES) | Φ1 (fluorescence quantum yield) | Φ2 (fluorescence quantum yield) |
| --- | --- | --- |
| CCN1/C(=C/C=C/C(=C/C2=[N+](CC)c3ccccc3C2(C)C)Nc2ccccc2)C(C)(C)c2ccccc21 [Dye IIg] | 0.014 | 0.002 |
| CCN(CC)C(=C\C1=[N+](CC)c2ccccc2C1(C)C)/C=C/C=C1/N(CC)c2ccccc2C1(C)C [Dye IId] | 0.004 | 0.004 |

same assay, conditions: solvent Ethanol

| Structure (SMILES) | Φ1 (fluorescence quantum yield) | Φ2 (fluorescence quantum yield) |
| --- | --- | --- |
| CCN1/C(=C/C=C/C(=C/C2=[N+](CC)c3ccccc3C2(C)C)Nc2ccccc2)C(C)(C)c2ccccc21 [Dye IIg] | 0.019 | 0.006 |
| CCN(CC)C(=C\C1=[N+](CC)c2ccccc2C1(C)C)/C=C/C=C1/N(CC)c2ccccc2C1(C)C [Dye IId] | 0.009 | 0.009 |

same assay, conditions: solvent Methanol

| Structure (SMILES) | Φ1 (fluorescence quantum yield) | Φ2 (fluorescence quantum yield) |
| --- | --- | --- |
| CCN1/C(=C/C=C/C(=C/C2=[N+](CC)c3ccccc3C2(C)C)Nc2ccccc2)C(C)(C)c2ccccc21 [Dye IIg] | 0.011 | 0.004 |
| CCN(CC)C(=C\C1=[N+](CC)c2ccccc2C1(C)C)/C=C/C=C1/N(CC)c2ccccc2C1(C)C [Dye IId] | 0.005 | 0.005 |

same assay, conditions: solvent THF

| Structure (SMILES) | Φ1 (fluorescence quantum yield) | Φ2 (fluorescence quantum yield) |
| --- | --- | --- |
| CCN1/C(=C/C=C/C(=C/C2=[N+](CC)c3ccccc3C2(C)C)Nc2ccccc2)C(C)(C)c2ccccc21 [Dye IIg] | 0.037 | 0.0002 |
| CCN(CC)C(=C\C1=[N+](CC)c2ccccc2C1(C)C)/C=C/C=C1/N(CC)c2ccccc2C1(C)C [Dye IId] | 0.030 | 0.022 |

same assay, conditions: solvent Water

| Structure (SMILES) | Φ1 (fluorescence quantum yield) | Φ2 (fluorescence quantum yield) |
| --- | --- | --- |
| CCN1/C(=C/C=C/C(=C/C2=[N+](CC)c3ccccc3C2(C)C)Nc2ccccc2)C(C)(C)c2ccccc21 [Dye IIg] | 0.003 | 0.001 |
| CCN(CC)C(=C\C1=[N+](CC)c2ccccc2C1(C)C)/C=C/C=C1/N(CC)c2ccccc2C1(C)C [Dye IId] | 0.001 | 0.001 |
